Tests used:
SU-DHL-4 cells = type: cell-based; conditions: SU-DHL-4, with T cells, 48 hours; epcoritamab 0.01 pg/mL-100 ng/mL; gemcitabine, oxaliplatin at EC30 concentrations
Procedure: (§1) Briefly, human Burkitt lymphoma (Raji) and DLBCL (SU-DHL-4) cell lines were used as target cells. Cells were cultured in culture medium (RPMI 1640 with HEPES and L-Glutamine supplemented with 10% heat-inactivated donor bovine serum with iron, and 1% [v/v]penicillin/streptomycin) to which 2 mM L-glutamine and 1 mM sodium pyruvate were added, at 37° C., 5% CO2. T cells, isolated from human healthy donor buffy coats (Sanquin) by negative selection using the RosetteSep™ Human T Cell Enrichment Cocktail (Stemcell Technologies), followed by density centrifugation over a Ficoll gradient, both according to the manufacturer's instructions, were used as effector cells. Isolated cells were washed twice in phosphate buffered saline (PBS) and counted using acridine orange/propidium iodide (AO/PI) viability staining solution (Nexcelom Bioscience) on a Cellometer® Auto 2000 Cell Viability Counter. […] B-cell viability and T-cell activation were measured by flow cytometry (count of CD22-positive cells; expression of the T-cell activation markers CD69, CD25, programmed cell death protein 1 (PD-1), and CD107 [lysosomal associated membrane protein 1; LAMP-1] on CD4+ and CD8+ T cells). Absolute cell numbers were determined by adding Accucheck Counting beads (100 μL/well) (Thermofisher) and calculated as follows:
(§2) Correction factor=([bead count1+bead count2]/average bead countplate)
(§3) Absolute cell number=[cell countsample/correction factor]
(§4) The percentage cytotoxicity was calculated as follows:
(§5) % cytotoxicity=100−([absolute cell numbersample/absolute cell numberno antibody]×100%)

Raji cells = type: cell-based; conditions: with T cells, 48 hours, epcoritamab 0.01 pg/mL-100 ng/mL, gemcitabine, oxaliplatin at EC30 concentrations
Procedure: as §1, §2, §3, §4, §5

[1] = system: T cells incubated with Raji cells; experiment: In vitro T-cell activation assay, T cells incubated with Raji cells; type: cell-based, human; conditions: Raji target cells, 48 hours
Procedure: as §1, with “follows: […]” for “follows:”

[2] = system: T cells incubated with SU-DHL-4 cells; experiment: In vitro T-cell activation assay, T cells incubated with SU-DHL-4 cells; type: cell-based, human; conditions: SU-DHL-4 target cells, 48 hours
Procedure: as §1, with “follows: […]” for “follows:”

R/R B-NHL = experiment: Ongoing clinical trial of epcoritamab monotherapy (NCT03625037); type: in vivo, human; conditions: R/R B-NHL patients, preliminary data
From the text: Summary of Ongoing Clinical Trial with Epcoritamab Epcoritamab as monotherapy is currently in a clinical trial for the treatment of relapsed/refractory (R/R) B-NHL (ClinicalTrials.gov Identifier: NCT03625037).

[3] = epcoritamab 0.01 pg/mL-100 ng/mL, flow cytometry
[4] = gemcitabine 1 nM, oxaliplatin 0.3 μM

Molecule | cytotoxicity of B cells (decrease in the number of viable B cells) (SU-DHL-4 cells) | cytotoxicity of B cells (decrease in the number of viable B cells) (Raji cells) | T-cell activation (upregulation of CD69, CD25, PD-1 and LAMP-1 expression) [1, 3] | Epcoritamab-induced T-cell activation in the presence of gemcitabine, oxaliplatin, or the combination [1, 4] | T-cell activation (upregulation of CD69, CD25, PD-1 and LAMP-1 expression) [2, 3] | Epcoritamab-induced T-cell activation in the presence of gemcitabine, oxaliplatin, or the combination [2, 4] | tolerated dose (R/R B-NHL)
Nc1ccn(C2OC(CO)C(O)C2(F)F)c(=O)n1 (centres unmarked) [gemcitabine, 4-amino-1-[3,3-difluoro-4-hydroxy-5-(hydroxymethyl)oxolan-2-yl]-1,2-dihydropyrimidin-2-one] | induced cytotoxicity of B cells | induced cytotoxicity of B cells | – | – | – | – | –
O=C1[O][Pt]2([NH][C@@H]3CCCC[C@H]3[NH]2)[O]C1=O [oxaliplatin, [(1R,2R)-cyclohexane-1,2-diamine](ethanedioato-O,O′)platinum(II)] | induced cytotoxicity of B cells | induced cytotoxicity of B cells | – | – | – | – | –
epcoritamab: IgG1 bispecific CD3×CD20 antibody; heavy and light chains of SEQ ID NOs: 24 and 25 (CD3 arm), 26 and 27 (CD20 arm); CAS 2134641-34-0 | concentration-dependent T-cell-mediated cytotoxicity | concentration-dependent T-cell-mediated cytotoxicity | concentration-dependent activation of both CD4+ (data not shown) and CD8+ T cells | not affected | concentration-dependent activation of both CD4+ (data not shown) and CD8+ T cells | not affected | at least 48 mg

Reference: patent US20230312759A1, “BISPECIFIC ANTIBODY AGAINST CD3 AND CD20 IN COMBINATION THERAPY FOR TREATING DIFFUSE LARGE B-CELL LYMPHOMA” (GENMAB A/S, priority 2020, published 2023)
